Experimental data: patent publication US20160038459A1, “COMPOSITIONS AND METHODS FOR THE TREATMENT OF NATAL AND PRE-NATAL CONDITIONS WITH ALPHA-TOCOPHEROL” (Northwestern University, priority 2014, published 2016)

Key:
[1] = test system: OVA-challenged pups from allergic mothers; assay: OVA-induced allergic inflammation in pups from allergic mothers given D-α-tocopherol-supplemented diet
Method: C57BL/6 female mice were maintained on chow diet. The mice were sensitized by intraperitoneal injection (200 μl) of ovalbumin (OVA) grade V (5 μg)/potassium aluminum sulfate (alum, 1 mg) or saline/alum (1 mg) on days 0 and 7 (26, 28, 46). The mice were exposed to nebulized saline or 3% (wt/vol) OVA in saline for 15 min on three consecutive days at 8, 12, and 16 wk of age. At 18 wk old, the female mice were challenged one time with 3% OVA (26, 28, 46) and then fed basal diet or diet supplemented with D-α-tocopherol (500 mg α-tocopherol/kg diet) (Table 1) (42, 52, 71). […] Ten days after starting the tocopherol-supplemented diet, females were mated with normal males. Three-day-old pups were sub-optimally sensitized by treating with only one 50-μl ip injection (rather than two injections) of 5 μg OVA/1 mg alum (26, 28, 33). At 10, 11, and 12 days old, the pups were challenged for 15 min with 3% OVA (FIG. 1A). At 13 days old, the pups were weighed and killed, and tissues were collected. Serum was collected for analysis of IgE, liver was for tocopherol analysis, lung lavage was for leukocytes and cytokines, and lung tissue was for histology, flow cytometry, and qPCR of mediators of allergic inflammation. Liver was extracted and examined for tocopherols by high-pressure liquid chromatography with electrochemical detection as we previously described (7, 50). Bronchoalveolar lavage (BAL) cells were stained and counted as previously described (3). […] Lung tissue sections were fixed in cold methanol for 15 min, rehydrated for 60 min with PBS, and stained with eosin and methyl green as we previously described (6).
In these studies, allergic responses were induced in 6-wk-old adult female mice by sensitization with OVA/alum at weeks 0 and 1 and challenge with OVA or saline three times a week during weeks 4, 8, 12, and 18 as in the timeline in FIG. 1A. Next, the females were supplemented with D-α-tocopherol at the time of mating (FIG. 1A). The mothers were given a standard basal diet (45 mg D-α-tocopherol/kg diet) or supplemented with 150, 250, or 500 mg D-α-tocopherol/kg diets (Table 1). […] All pups from the mothers were challenged with a suboptimal regimen of OVA as previously described (46); the pups received one, instead of two, sensitizations with OVA-alum and then received three challenges with aerosolized OVA (FIG. 1A).

[2] = Liver tocopherol measurement by HPLC with electrochemical detection; type: in vivo, C57BL/6 mice; settings: PND13 pup liver
Method: Diets or livers were weighed and homogenized in absolute ethanol with 5% ascorbic acid on ice. The internal standard tocol is added to each […] to determine recovery. The homogenate or plasma was extracted with an equal volume of hexane with 0.37 wt/100 wt butylated hydroxytoluene to prevent oxidation and increase recovery of tocopherol. The samples were vortexed and then centrifuged for 10 min at 9,000 g at 4° C. The hexane layer was dried under nitrogen and stored at −20° C. The samples were reconstituted in methanol, and then tocopherols were separated using a reverse-phase C18 HPLC column (Hewlett Packard) and HPLC (Waters) with 99% methanol-1% water as a mobile phase with detection with an electrochemical detector (potential 0.7 V) (Waters).

[3] = test system: lung tissue cytokines and eotaxins; assay: Pup lung cytokines, chemokines, IDO and MHCII by qPCR; BAL CCL24 by ELISA; type: in vivo, C57BL/6 mice
Method: Total RNA was isolated from 50 to 100 mg lung tissue using the QIAGEN RNeasy Fibrous Tissue Mini Kit. cDNA was prepared using a SuperScript II RNase H-Reverse Transcriptase kit (Invitrogen) and analyzed by PCR on an ABI 7300 Thermal Cycler (Applied Biosystems). Taqman probes and Taqman Universal Master Mix were used as directed (Applied Biosystems). CCL24 in the BAL also was examined by ELISA (Raybiotech).

[4] = test system: bone marrow-derived CD11c+CD11b+ DCs; assay: Bone marrow-derived dendritic cell culture with GM-CSF in vitro; type: cell-based, mice; settings: 80 μM vs DMSO
Method: For bone marrow-derived postnatal day 10 pup dendritic cell cultures, a single cell suspension of bone marrow from 10-day-old mice was placed in RPMI 1640, glutamine, HEPES, gentamycin sulfate, penicillin/streptomycin, and 10% heat-inactivated FCS. The bone marrow cells were treated with the DMSO solvent control (0.01%) or D-α-tocopherol (80 μM) as we previously described for in vitro treatment with D-α-tocopherol (7). The cells were stimulated with 5 ng granulocyte macrophage colony-stimulating factor (GM-CSF) per milliliter. The culture medium with tocopherol and GM-CSF was replaced on days 2, 4, and 7. […]

[5] = maternal supplementation, discussion statement
[6] = maternal supplementation during pregnancy/lactation, first litter, PND13, qPCR
[7] = second litter, 500 mg/kg maternal diet, OVA-challenged pups from allergic mothers
[8] = bone marrow from 10-day-old neonates, 8 days

Cc1c(C)c2c(c(C)c1O)CC[C@@](C)(CCC[C@H](C)CCC[C@H](C)CCCC(C)C)O2 [D-α-tocopherol, D-α-Tocopherol]
percent eosinophils in the BAL ([1]; 150 mg α-tocopherol/kg maternal diet, pups PND13): partially inhibited | percent eosinophils in the BAL ([1]; 250 mg α-tocopherol/kg maternal diet, pups PND13): greatest inhibition | development of the allergic response in cross-fostered neonates ([1]; 250 mg/kg diet during pregnancy only, pups cross-fostered to allergic mothers with basal diet): sufficient to inhibit | allergic responses in cross-fostered neonates ([1]; 250 mg/kg diet supplementation during lactation only, cross-fostered): reduced | percent eosinophils in the BAL ([1]; 500 mg α-tocopherol/kg maternal diet, pups PND13): greatest inhibition | inhibition of BAL eosinophils in the OVA-challenged pups ([1]; 500 mg/kg diet started at second mating, second litter of allergic mothers): > 90% | OVA-specific serum IgE in pups ([1]; among the D-α-tocopherol treatment groups, ELISA): not different | allergic inflammation in the OVA-stimulated pups from allergic mothers ([1]; maternal diet 150, 250 or 500 mg/kg diet vs basal 45 mg/kg, pregnancy and lactation, PND13 BAL): dose-dependent inhibition | eosinophils in the lung tissue of OVA-challenged pups ([1]; maternal supplementation of allergic female mice, eosin/methyl green histology): reduced | allergic responses in the lung (BAL eosinophils and monocytes) ([1]; maternal supplementation, PND13 pups of the liver tocopherol/DC experiment (FIG. 9D)): blocked | body weight [1, 5]: did not affect | lung weight [1, 5]: did not affect | pup gender distribution ([1]; maternal supplemented diets): no effect | pup numbers ([1]; maternal supplemented diets): no effect | pup weight ([1]; maternal supplemented diets, pups PND13): no effect | increase of pup liver D-α-tocopherol with maternal supplementation [2]: 2.5 fold | OVA-induced pup lung mRNA expression of CCL11 [3, 6]: inhibited | OVA-induced pup lung mRNA expression of CCL24 [3, 6]: inhibited | OVA-induced pup lung mRNA expression of IL-4 [3, 6]: inhibited | OVA-induced pup lung mRNA expression of IL-33 [3, 6]: inhibited | protein expression of CCL24 in BAL supernatant ([3]; maternal supplementation during pregnancy/lactation, PND13, ELISA): inhibited | whole lung expression of IFNγ [3, 7]: no effect | whole lung expression of IL-2 [3, 7]: no effect | whole lung expression of IL-10 [3, 7]: no effect | whole lung expression of MHCII [3, 7]: no effect | whole lung expression of TNF-α [3, 7]: no effect | whole lung mRNA expression of CCL11 [3, 7]: reduced | whole lung mRNA expression of CCL24 [3, 7]: reduced | whole lung mRNA expression of IL-4 [3, 7]: reduced | whole lung mRNA expression of IL-33 [3, 7]: reduced | whole lung mRNA expression of TSLP [3, 7]: reduced | lung tissue expression of IDO ([3]; second litter, 500 mg/kg maternal diet, pups from allergic mothers and saline mothers): reduced | percent of viable cells in the culture ([4]; 8 days (data not shown)): without affecting | number of CD45+CD11b+CD11+DCs [4, 8]: reduced | number of cells with resident DC phenotype (CD45+CD11b+CD11c+Ly6c−MHCII−DCs) [4, 8]: reduced
